Data: US8637516B2 (IRM LLC, priority 2010, dated 2014)

Legend:
[1] = tested on: parental Ba/F3 cells; assay: Proliferation of parental (untransformed, wt) Ba/F3 cells (BAF3/WT); assay type: cell-based, murine; settings: Mus musculus, Table 1, parental cells with IL3, 48 hours
Method: (§1) Compound dilutions were made in 384 well plates.
Compounds were tested for their ability to inhibit the proliferation of wt Ba/F3 cells and Ba/F3 cells transformed with constitutively expressed luciferase reporter and BCR-ABL or Tel-FMS or other Tel fusion kinases (EGFR, JAK2, ALK, BMX, FGFR3, FGFR4, FGR2, FLT1, FLT3, IGF1R, INSR, KDR, KIT, LCK, LYN, MEK, MET, PDGFRα, PDGFRβ, RET, RON, ROS, SRC, SYK, TIE and TYRO) or BRafV600E. Parental Ba/F3 cells were maintained in media containing recombinant mouse IL3 and the kinase transformed Ba/F3 cells were maintained in media without IL-3. 7.5 nl of compounds were spotted to each well of 1536-well assay plates by Liquid handling System Echo 555 (Labcyte). 700 cells were then plated into each well of the assay plates in 7 uL culture media per well and compounds were tested at 0.17 nM to 10 uM in 3-fold serial dilutions. The cells were then incubated for 48 hours at 37° C. 3 uL of Bright-Glo® (Promega) was added to each well and the plates were read using ViewLux (PerkinElmer).
(§2) The emited luminiscence is quantified using ViewLux (PerkinElmer).

[2] = biological target: T1, Ba/F3 cells transformed with human Tel-TrkA (Homo sapiens, UniProt P04629); assay: Proliferation of Ba/F3 cells transformed with human Tel-TrkA (Ba/F3 Tel-TrkA); assay type: cell-based; settings: Table 1; 48 hours, Bright Glo luminescence; read-out: Ba/F3 Tel-TrkA
T1 construct: expressed in transfected cells; host or cells: Ba/F3 murine hematopoietic progenitor cells (luciferase expressing); the other entry of the earlier key: ETV6 (P41212, Transcription factor ETV6)
T1 sequence (P04629 510-796 limits assumed): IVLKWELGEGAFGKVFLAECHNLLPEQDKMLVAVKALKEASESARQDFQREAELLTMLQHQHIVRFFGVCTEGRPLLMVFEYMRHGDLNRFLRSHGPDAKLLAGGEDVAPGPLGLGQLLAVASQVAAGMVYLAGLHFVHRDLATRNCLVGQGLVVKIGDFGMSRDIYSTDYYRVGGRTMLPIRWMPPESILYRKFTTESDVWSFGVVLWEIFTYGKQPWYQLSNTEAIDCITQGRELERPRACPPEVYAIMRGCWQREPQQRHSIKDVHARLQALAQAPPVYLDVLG
Source text: as §1, §2

## O=C(NCCN1CCCC1=O)c1cnc2ccc(N3CCC[C@@H]3c3cccc(F)c3)nn12 [X-86]
[1]
  IC50: > 10000 nM
[2]
  IC50: 191 nM

## O=C(N[C@H]1CCCC[C@@H]1CO)c1cnc2ccc(N3CCC[C@@H]3c3cccc(F)c3)nn12 [X-28]
[1]
  IC50: > 10000 nM
[2]
  IC50: 112 nM

## O=C(N[C@H]1CCCC[C@@H]1O)c1cnc2ccc(N3CCC[C@@H]3c3cccc(F)c3)nn12 [X-82]
[1]
  IC50: > 10000 nM
[2]
  IC50: 89 nM

## O=C(CCc1cccc(N2CCOCC2)n1)c1cnc2ccc(N3CCC[C@@H]3c3cccc(F)c3)nn12 [X-129]
[1]
  IC50: > 9710 nM
[2]
  IC50: 88 nM

## O=C(NCCO)c1cnc2ccc(N3C[C@@H](F)C[C@@H]3c3cccc(F)c3)nn12 [X-119]
[1]
  IC50: > 10000 nM
[2]
  IC50: 3 nM

## NC(=O)c1cnc2ccc(N3C[C@@H](F)C[C@@H]3c3cc(F)cc(F)c3)nn12 [X-241]
[1]
  IC50: 6700 nM
[2]
  IC50: 3 nM

## O=C(NCc1ccc(F)cc1)c1cnc2ccc(N3CCC[C@@H]3c3cccc(F)c3)nn12 [X-47]
[1]
  IC50: > 10000 nM
[2]
  IC50: 70 nM

## CCOC(=O)c1cnc2ccc(N3C[C@@H](F)C[C@@H]3c3cccc(F)c3)nn12 [X-165, ethyl 6-((2R,4S)-4-fluoro-2-(3-fluorophenyl)pyrrolidin-1-yl)imidazo[1,2-b]pyridazine-3-carboxylate]
[1]
  IC50: > 10000 nM
[2]
  IC50: 4 nM

## CCOC(=O)c1cnc2ccc(N3C[C@H](F)C[C@H]3c3cccc(F)c3)nn12 [X-166, ethyl 6-((2S,4R)-4-fluoro-2-(3-fluorophenyl)pyrrolidin-1-yl)imidazo[1,2-b]pyridazine-3-carboxylate]
[1]
  IC50: > 10000 nM
[2]
  IC50: 314 nM

## N#Cc1cnc2ccc(N3CCC[C@@H]3c3cccc(F)c3)nn12 [X-2, (R)-6-(2-(3-fluorophenyl)pyrrolidin-1-yl)imidazo[1,2-b]pyridazine-3-carbonitrile]
[1]
  IC50: > 10000 nM
[2]
  IC50: 268 nM

## O=C(NCc1ccc(F)cc1)c1cnc2ccc(N3CCCC3c3cccc(F)c3)nn12 (stereo not shown) [X-24]
[1]
  IC50: > 10000 nM
[2]
  IC50: 236 nM

## O=C(N[C@H]1CC[C@@H](O)CC1)c1cnc2ccc(N3CCC[C@@H]3c3cccc(F)c3)nn12 [X-80]
[1]
  IC50: > 10000 nM
[2]
  IC50: 6 nM

## CC(=O)OCC(=O)N1CCC(NC(=O)c2cnc3ccc(N4CCC[C@@H]4c4cccc(F)c4)nn23)CC1 [X-73, (R)-2-(4-(6-(2-(3-fluorophenyl)pyrrolidin-1-yl)imidazo[1,2-b]pyridazine-3-carboxamido)piperidin-1-yl)-2-oxoethyl acetate]
[1]
  IC50: > 10000 nM
[2]
  IC50: 109 nM

## COC(=O)Nc1cnc2ccc(N3CCC[C@@H]3c3cccc(F)c3)nn12 [X-235]
[1]
  IC50: > 10000 nM
[2]
  IC50: 586 nM

## CCN(CC)CCCNC(=O)c1cnc2ccc(N3CCC[C@H]3c3cccc(F)c3)nn12 [X-40]
[1]
  IC50: > 10000 nM
[2]
  IC50: 951 nM

## CN1CCN(NC(=O)c2cnc3ccc(N4CCC[C@@H]4c4cccc(F)c4)nn23)CC1 [X-154, (R)-6-(2-(3-fluorophenyl)pyrrolidin-1-yl)-N-(4-methylpiperazin-1-yl)imidazo[1,2-b]pyridazine-3-carboxamide]
[1]
  IC50: > 10000 nM
[2]
  IC50: 153 nM

## O=C(N[C@@H]1c2ccccc2C[C@H]1O)c1cnc2ccc(N3CCC[C@@H]3c3cccc(F)c3)nn12 [X-106]
[1]
  IC50: > 10000 nM
[2]
  IC50: 3 nM

## CCOC(=O)c1cnc2ccc(N3CCC(=O)C3c3cccc(F)c3)nn12 (stereo not shown) [X-159, ethyl 6-(2-(3-fluorophenyl)-3-oxopyrrolidin-1-yl)imidazo[1,2-b]pyridazine-3-carboxylate]
[1]
  IC50: > 10000 nM
[2]
  IC50: 251 nM

## O=C(NC1CCOCC1)c1cnc2ccc(N3CCC[C@@H]3c3cccc(F)c3)nn12 [X-93]
[1]
  IC50: > 10000 nM
[2]
  IC50: 10 nM

## N#Cc1cccc(NC(=O)c2cnc3ccc(N4CCC[C@@H]4c4cccc(F)c4)nn23)c1 [X-65, (R)-N-(3-cyanophenyl)-6-(2-(3-fluorophenyl)pyrrolidin-1-yl)imidazo[1,2-b]pyridazine-3-carboxamide]
[1]
  IC50: > 9510 nM
[2]
  IC50: 92 nM

## [2H][C@]1(c2cccc(F)c2)CCCN1c1ccc2ncc(C(N)=O)n2n1 [X-9]
[1]
  IC50: > 10000 nM
[2]
  IC50: 12 nM

## N#CCC(=O)Nc1cnc2ccc(N3CCC[C@@H]3c3cccc(F)c3)nn12 [X-184]
[1]
  IC50: > 10000 nM
[2]
  IC50: 291 nM

## Cn1cccc1/C=C/C(=O)c1cnc2ccc(N3CCC[C@@H]3c3cccc(F)c3)nn12 [X-130]
[1]
  IC50: > 10000 nM
[2]
  IC50: 24 nM

## N#Cc1cc(F)cc([C@H]2C[C@H](F)CN2c2ccc3ncc(C(N)=O)n3n2)c1 [X-244]
[1]
  IC50: > 10000 nM
[2]
  IC50: 61 nM

## O=C(NO)c1cnc2ccc(N3CCC[C@@H]3c3cccc(F)c3)nn12 [X-150]
[1]
  IC50: > 10000 nM
[2]
  IC50: 210 nM

## O=C(NCC(F)F)c1cnc2ccc(N3C[C@@H](F)C[C@@H]3c3cccc(F)c3)nn12 [X-114]
[1]
  IC50: 7490 nM
[2]
  IC50: 1 nM

## NC(=O)NC(=O)c1cnc2ccc(N3CC(F)(F)C[C@@H]3c3cccc(F)c3)nn12 [X-248, (R)-N-carbamoyl-6-(4,4-difluoro-2-(3-fluorophenyl)pyrrolidin-1-yl)imidazo[1,2-b]pyridazine-3-carboxamide]
[1]
  IC50: > 10000 nM
[2]
  IC50: 19 nM

## O=C(NC1CCS(=O)(=O)C1)c1cnc2ccc(N3CCC[C@@H]3c3cccc(F)c3)nn12 (stereo partly shown) [X-88]
[1]
  IC50: > 10000 nM
[2]
  IC50: 53 nM

## NS(=O)(=O)CCNC(=O)c1cnc2ccc(N3C[C@@H](F)CC3c3cccc(F)c3)nn12 (stereo partly shown) [X-118]
[1]
  IC50: > 10000 nM
[2]
  IC50: 54 nM

## N#Cc1cnc2ccc(N3CCOCC3c3cccc(F)c3)nn12 (stereo not shown) [X-3, 6-(3-(3-fluorophenyl)morpholino)imidazo[1,2-b]pyridazine-3-carbonitrile]
[1]
  IC50: > 10000 nM
[2]
  IC50: 957 nM

## O=C(NC[C@@H]1CCCO1)c1cnc2ccc(N3CCC[C@@H]3c3cccc(F)c3)nn12 [X-85]
[1]
  IC50: > 10000 nM
[2]
  IC50: 54 nM

## CN(C)CCONC(=O)c1cnc2ccc(N3CCC[C@@H]3c3cccc(F)c3)nn12 [X-146]
[1]
  IC50: > 10000 nM
[2]
  IC50: 302 nM

## CCn1nccc1NC(=O)c1cnc2ccc(N3CCC[C@@H]3c3cccc(F)c3)nn12 [X-77]
[1]
  IC50: > 10000 nM
[2]
  IC50: 548 nM

## O=C(NCCC1CCCO1)c1cnc2ccc(N3CCC[C@@H]3c3cccc(F)c3)nn12 (stereo partly shown) [X-23]
[1]
  IC50: > 10000 nM
[2]
  IC50: 92 nM

## CONC(=O)c1cnc2ccc(N3CCC[C@@H]3c3cccc(F)c3)nn12 [X-151]
[1]
  IC50: > 10000 nM
[2]
  IC50: 45 nM

## CCNC(=O)c1cnc2ccc(N3CCCC3c3cccc(F)c3)nn12 (stereo not shown) [X-21]
[1]
  IC50: > 10000 nM
[2]
  IC50: 42 nM

## CCOC(=O)c1cnc2ccc(N3C[C@H](O)C[C@@H]3c3cccc(F)c3)nn12 [X-160, ethyl 6-((2R,4R)-2-(3-fluorophenyl)-4-hydroxypyrrolidin-1-yl)imidazo[1,2-b]pyridazine-3-carboxylate]
[1]
  IC50: > 10000 nM
[2]
  IC50: 73 nM

## CCONC(=O)c1cnc2ccc(N3C[C@@H](F)C[C@@H]3c3cccc(F)c3)nn12 [X-142, N-ethoxy-6-((2R,4S)-4-fluoro-2-(3-fluorophenyl)pyrrolidin-1-yl)imidazo[1,2-b]pyridazine-3-carboxamide]
[1]
  IC50: 6690 nM
[2]
  IC50: 1 nM

## CCONC(=O)c1cnc2ccc(N3CCC[C@@H]3c3cccc(F)c3)nn12 [X-149]
[1]
  IC50: > 10000 nM
[2]
  IC50: 23 nM

## NS(=O)(=O)N1CCC(NC(=O)c2cnc3ccc(N4CCC[C@@H]4c4cccc(F)c4)nn23)CC1 [X-29, (R)-6-(2-(3-fluorophenyl)pyrrolidin-1-yl)-N-(1-sulfamoylpiperidin-4-yl)imidazo[1,2-b]pyridazine-3-carboxamide]
[1]
  IC50: > 10000 nM
[2]
  IC50: 239 nM

## NC(=O)c1cnc2ccc(N3CC(F)(F)C[C@@H]3c3cccc(F)c3)nn12 [X-247, (R)-6-(4,4-difluoro-2-(3-fluorophenyl)pyrrolidin-1-yl)imidazo[1,2-b]pyridazine-3-carboxamide]
[1]
  IC50: > 10000 nM
[2]
  IC50: 34 nM

## COC(=O)N[C@@H](C)CNC(=O)c1cnc2ccc(N3CCC[C@@H]3c3cccc(F)c3)nn12 [X-87]
[1]
  IC50: > 10000 nM
[2]
  IC50: 76 nM

## CC(C)OC(=O)Nc1cnc2ccc(N3CCC[C@@H]3c3cccc(F)c3)nn12 [X-234]
[1]
  IC50: > 10000 nM
[2]
  IC50: 449 nM

## CC(C)(C)OC(=O)N1CC[C@@H](NC(=O)c2cnc3ccc(N4CCC[C@@H]4c4cccc(F)c4)nn23)C1 [X-62]
[1]
  IC50: > 10000 nM
[2]
  IC50: 910 nM

## CCCS(=O)(=O)N1CCC(NC(=O)c2cnc3ccc(N4CCC[C@@H]4c4cccc(F)c4)nn23)CC1 [X-35]
[1]
  IC50: > 10000 nM
[2]
  IC50: 26 nM

## O=C(NCCc1ccc(F)cc1)c1cnc2ccc(N3CCC[C@@H]3c3cccc(F)c3)nn12 [X-37]
[1]
  IC50: > 10000 nM
[2]
  IC50: 137 nM

## CC(C)NC(=O)c1ccc(F)cc1C1CC(F)(F)CN1c1ccc2ncc(C(N)=O)n2n1 (stereo not shown) [X-250]
[1]
  IC50: > 10000 nM
[2]
  IC50: 64 nM

## CC(=O)N1CCC(NC(=O)c2cnc3ccc(N4CCC[C@@H]4c4cccc(F)c4)nn23)CC1 [X-67]
[1]
  IC50: > 10000 nM
[2]
  IC50: 81 nM

## O=C(NCCF)c1cnc2ccc(N3C[C@@H](F)C[C@@H]3c3cccc(F)c3)nn12 [X-112, 6-((2R,4S)-4-fluoro-2-(3-fluorophenyl)pyrrolidin-1-yl)-N-(2-fluoroethyl)imidazo[1,2-b]pyridazine-3-carboxamide]
[1]
  IC50: 5450 nM
